Laboratory results published in US20120252853A1, “Positive allosteric modulators of nicotinic acetylcholine receptor” (H. Lundbeck A/S, priority 2011, published 2012).

Biological target: human α7 receptor (Homo sapiens, UniProt P36544)
Experiment: α7 NNR flux assay (FDSS Ca assay)
Format: cell-based
Details: positive allosteric modulation; rat GH4C1 cell line stably expressing human α7; acetylcholine 20 μM; % modulation relative to PNU-120596 set to 100%
Protocol: In this version of the assay, the human α7 receptor is stably expressed in the rat GH4C1 cell line. The assay was used to identify positive allosteric modulators (PAMs) of the α7 receptor. Activation of the channel was measured by loading cells with the calcium-sensitive fluorescent dye Calcium-4 (Assay kit from Molecular Devices), and then measuring real-time changes in fluorescence upon treatment with test compounds.
The cell line ChanClone GH4C1-nAChRalpha7 from Genionics was seeded from frozen stock in 384-well plates in culture media 2-3 days before experiment to form an approximately 80% confluent layer on the day of experiment.
The cell culture were split into “22.5 cm×22.5 cm”-plates with approximately 100×10^3 cells/cm^2. After four days incubation in a humidified incubator at 37° C. and 5% CO2, it had grown to an 80-90% confluent layer, and the cells were harvested.
Two or three days before the experiment the cells were seeded in 384 well plates from Greiner bio-one (781946, CELLCOAT, Poly-D-Lysine, black, μClear).
The cells were seeded in 384 well plates with 30 μL/well (30000 cells/well) while stirring the cell suspension or otherwise preventing the cells from precipitating. The plates were incubated at room temperature for 30-45 minutes. The plates were placed in incubator for two days (37° C. and 5% CO2).
The loading buffer was 5% v/v Calcium-4 Kit and 2.5 mM Probenecid in assay buffer.
Culture media were removed from the cell plates and 20 μL loading buffer was added in each well. The cell plates were placed in trays and incubated 90 minutes in the incubator (37° C.). Thereafter the plates were incubated 30 minutes at room temperature, still protected from light. Now the cell plates were ready to run in the Functional Drug Screening System (FDSS) The assay buffer was HBSS with 20 mM HEPES, pH 7.4 and 3 mM CaCl2.
200 nL 10 mM compound solution in DMSO was diluted in 50 μL assay buffer. The final test concentrations in the cell plates were 20-10-5-2.5-1.25-0.625-0.312-0.156-0.078-0.039 μM. Assay buffer and 3 μM PNU-120596 were used for control:
The agonist acetylcholine was added to a final concentration of 20 μM (˜EC100). In the FDSS7000 the Ex480-Em540 was measured with 1 second intervals. The baseline was made of 5 frames before addition of test compounds, and 95 frames more were made before addition of acetylcholine. The measurement stopped 30 frames after the 2nd addition. Raw data for each well were collected as “the maximum fluorescence count” in the interval 100-131 seconds and as “the average fluorescence count” in the interval 96-100 seconds. The positive allosteric modulation in the 2nd addition was the enhancement of agonist response with test compound compared to agonist alone.
Results were calculated as % modulation of test compound compared to the reference PNU-120596 set to 100%.

human α7 receptor, sequence (P36544 23-502): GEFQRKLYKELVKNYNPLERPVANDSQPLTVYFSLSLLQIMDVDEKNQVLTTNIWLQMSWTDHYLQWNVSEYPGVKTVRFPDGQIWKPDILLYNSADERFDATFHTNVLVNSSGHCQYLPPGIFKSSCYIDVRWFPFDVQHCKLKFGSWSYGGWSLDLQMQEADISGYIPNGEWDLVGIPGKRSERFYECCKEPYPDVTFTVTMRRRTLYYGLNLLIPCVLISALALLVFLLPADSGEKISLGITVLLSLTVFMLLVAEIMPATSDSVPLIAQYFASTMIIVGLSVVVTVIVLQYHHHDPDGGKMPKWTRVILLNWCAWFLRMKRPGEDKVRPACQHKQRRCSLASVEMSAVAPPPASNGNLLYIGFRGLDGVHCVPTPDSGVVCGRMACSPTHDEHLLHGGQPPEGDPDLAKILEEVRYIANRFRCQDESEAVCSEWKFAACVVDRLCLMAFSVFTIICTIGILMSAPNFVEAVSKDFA

Row | SMILES | EC50 [µM]
1 | Cc1cc(C(=O)N[C@@H](C)c2ccc3[nH]c(C)cc3c2F)on1 [Compound 54, N-[(1S)-1-(4-fluoro-2-methyl-1H-indol-5-yl)ethyl]-3-methyl-isoxazole-5-carboxamide] | > 20
2 | Cc1cc2cc(CNC(=O)c3onc(C)c3Cl)ccc2[nH]1 [Compound 56, 4-chloro-3-methyl-N-[(2-methyl-1H-indol-5-yl)methyl]isoxazole-5-carboxamide] | 4.3
3 | Cc1cc2cc(CNC(=O)c3cccn3C)ccc2[nH]1 [Compound 57, 1-methyl-N-[(2-methyl-1H-indol-5-yl)methyl]pyrrole-2-carboxamide] | 3.87
4 | Cc1cc(C(=O)NCc2ccc3[nH]ccc3c2)on1 [Compound 58, N-(1H-indol-5-ylmethyl)-3-methyl-isoxazole-5-carboxamide] | 8.57
5 | Cc1c(C(=O)NCc2ccc3[nH]ccc3c2)sc(=O)n1C [Compound 59, N-(1H-indol-5-ylmethyl)-3,4-dimethyl-2-oxo-thiazole-5-carboxamide] | 7.7
6 | Cc1cc2cc(CNC(=O)c3sc(=O)n(C)c3C)ccc2[nH]1 [Compound 60, 3,4-dimethyl-N-[(2-methyl-1H-indol-5-yl)methyl]-2-oxo-thiazole-5-carboxamide] | 4.1
7 | Cc1cc(C(=O)N[C@@H](C)c2ccc3[nH]c(C)cc3c2)on1 [Compound 62, 3-methyl-N-[(1S)-1-(2-methyl-1H-indol-5-yl)ethyl]isoxazole-5-carboxamide] | 9.1
8 | Cc1cc(C(=O)NCc2ccc3c(c2)cc(C)n3C(F)F)on1 [Compound 64] | 9.3
9 | Cc1cc2cc(CNC(=O)c3cnn(CC(F)(F)F)c3)ccc2n1C(F)F [Compound 69, N-[[1-(difluoromethyl)-2-methyl-indol-5-yl]methyl]-1-(2,2,2-trifluoroethyl)pyrazole-4-carboxamide] | 4.2
10 | Cc1cc2cc(CNC(=O)c3cnn(C(C)C)c3)ccc2[nH]1 [Compound 71, 1-isopropyl-N-[(2-methyl-1H-indol-5-yl)methyl]pyrazole-4-carboxamide] | 2.9
11 | O=C(NCc1ccc2c(ccn2C(F)F)c1)c1cc(CC(F)(F)F)no1 [Compound 72, N-[[1-(difluoromethyl)indol-5-yl]methyl]-3-(2,2,2-trifluoroethyl)isoxazole-5-carboxamide] | 7.6
12 | [2H]C([2H])([2H])c1cc2cc(CNC(=O)c3cc(C)no3)ccc2[nH]1 [Compound 73, 3-methyl-N-[[2-(trideuteriomethyl)-1H-indol-5-yl]methyl]isoxazole-5-carboxamide] | 2.8
13 | Cc1cc2cc(CNC(=O)c3nnc(C)o3)ccc2[nH]1 [Compound 74, 5-methyl-N-[(2-methyl-1H-indol-5-yl)methyl]-1,3,4-oxadiazole-2-carboxamide] | 6
14 | Cc1cc2cc(CNC(=O)c3coc(C)n3)ccc2[nH]1 [Compound 76, 2-methyl-N-[(2-methyl-1H-indol-5-yl)methyl]oxazole-4-carboxamide] | 8.2
15 | Cc1cc2cc(CNC(=O)c3noc(C)n3)ccc2[nH]1 [Compound 77, 5-methyl-N-[(2-methyl-1H-indol-5-yl)methyl]-1,2,4-oxadiazole-3-carboxamide] | 10.5
16 | [2H]C([2H])([2H])c1cc2cc(CNC(=O)c3cc(CC(F)(F)F)no3)ccc2[nH]1 [Compound 78, N-[[2-(trideuteriomethyl)-1H-indol-5-yl]methyl]-3-(2,2,2-trifluoroethyl)isoxazole-5-carboxamide] | 0.61
17 | [2H]C([2H])([2H])c1cc2cc(CNC(=O)c3cnn(CC(F)(F)F)c3)ccc2[nH]1 [Compound 82] | 0.98
18 | Cc1cc2cc(CNC(=O)c3cc(C(C)(C)C)on3)ccc2[nH]1 [Compound 87, 5-tert-butyl-N-[(2-methyl-1H-indol-5-yl)methyl]isoxazole-3-carboxamide] | 2.6
19 | Cn1c(C(F)(F)F)cc2cc(CNC(=O)c3cnn(CC(F)(F)F)c3)ccc21 [Compound 88, N-[[1-methyl-2-(trifluoromethyl)indol-5-yl]methyl]-1-(2,2,2-trifluoroethyl)pyrazole-4-carboxamide] | 6.2
20 | Cn1c(C(F)(F)F)cc2cc(CNC(=O)c3cc(CC(F)(F)F)no3)ccc21 [Compound 90, N-[[1-methyl-2-(trifluoromethyl)indol-5-yl]methyl]-3-(2,2,2-trifluoroethyl)isoxazole-5-carboxamide] | 5
21 | O=C(NCc1ccc2[nH]c(C(F)F)cc2c1)c1cnn(CC(F)(F)F)c1 [Compound 91, N-[[2-(difluoromethyl)-1H-indol-5-yl]methyl]-1-(2,2,2-trifluoroethyl)pyrazole-4-carboxamide] | 1.7
22 | Cc1cc(C(=O)NCc2ccc3[nH]c(C(F)F)cc3c2)on1 [Compound 92, N-[[2-(difluoromethyl)-1H-indol-5-yl]methyl]-3-methyl-isoxazole-5-carboxamide] | 8.3

More lines, in order of falling EC50, values ahead:

Row | EC50 [µM] | SMILES
23 | 11 | Cc1cc2cc(CNC(=O)c3cnn(CC(F)(F)F)c3)ccc2n1C(F)(F)F [Compound 83, N-[[2-methyl-1-(trifluoromethyl)indol-5-yl]methyl]-1-(2,2,2-trifluromethyl)pyrazole-4-carboxamide]
24 | 9.4 | Cc1cc2cc(CNC(=O)c3cc(CC(F)(F)F)no3)ccc2n1C(F)F [Compound 70, N-[[1-(difluoromethyl)-2-methyl-indol-5-yl]methyl]-3-(2,2,2-trifluoroethyl)isoxazole-5-carboxamide]
25 | 7.7 | Cc1cc2cc(CNC(=O)c3cc(CC(F)(F)F)no3)ccc2n1C(F)(F)F [Compound 85, N-[[2-methyl-1-(trifluoromethyl)indol-5-yl]methyl]-3-(2,2,2-trifluoroethyl)isoxazole-5-carboxamide]
26 | 7.3 | Cc1cc(C(=O)NCc2ccc3[nH]c(C)cc3c2)n(C)n1 [Compound 55, 2,5-dimethyl-N-[(2-methyl-1H-indol-5-yl)methyl]pyrazole-3-carboxamide]
27 | 6 | Cc1cc(C(=O)N[C@H](C)c2ccc3[nH]c(C)cc3c2F)on1 [Compound 53, N-[(1R)-1-(4-fluoro-2-methyl-1H-indol-5-yl)ethyl]-3-methyl-isoxazole-5-carboxamide]
28 | 6 | O=C(NCc1ccc2c(ccn2C(F)(F)F)c1)c1cnn(CC(F)(F)F)c1 [Compound 81, 1-(2,2,2-trifluoroethyl)-N-[[1-(trifluoromethyl)indol-5-yl]methyl]pyrazole-4-carboxamide]
29 | 6 | Cc1cc(C(=O)NCc2ccc3c(c2)cc(C)n3C(F)(F)F)on1 [Compound 84, 3-methyl-N-[[2-methyl-1-(trifluoromethyl)indol-5-yl]methyl]isoxazole-5-carboxamide]
30 | 5.8 | Cc1cc(C(=O)NCc2ccc3c(ccn3C(F)F)c2)on1 [Compound 63, N-[[1-(difluoromethyl)indol-5-yl]methyl]-3-methyl-isoxazole-5-carboxamide]
31 | 5.7 | Cc1cc(C(=O)NCc2ccc3c(ccn3C(F)(F)F)c2)on1 [Compound 80, 3-methyl-N-[[1-(trifluoromethyl)indol-5-yl]methyl]isoxazole-5-carboxamide]
32 | 5.6 | Cc1cc(C(=O)NCc2ccc3c(c2)cc(C(F)(F)F)n3C)on1 [Compound 89, 3-methyl-N-[[1-methyl-2-(trifluoromethyl)indol-5-yl]methyl]isoxazole-5-carboxamide]
33 | 5.4 | O=C(NCc1ccc2[nH]c(C(F)F)cc2c1)c1cc(CC(F)(F)F)no1 [Compound 93, N-[[2-(difluoromethyl)-1H-indol-5-yl]methyl]-3-(2,2,2-trifluoroethyl)isoxazole-5-carboxamide]
34 | 5.3 | Cc1cc2cc([C@@H](C)NC(=O)c3cnn(C4COC4)c3)ccc2[nH]1 [Compound 52, N-[(1R)-1-(2-methyl-1H-indol-5-yl)ethyl]-1-(oxetan-3-yl)pyrazole-4-carboxamide]
35 | 2.1 | O=C(NCc1ccc2c(ccn2C(F)F)c1)c1cnn(CC(F)(F)F)c1 [Compound 68, N-[[1-(difluoromethyl)indol-5-yl]methyl]-1-(2,2,2-trifluoroethyl)pyrazole-4-carboxamide]
36 | 2.1 | CCc1cc(C(=O)NCc2ccc3[nH]c(C)cc3c2)no1 [Compound 75, 5-ethyl-N-[(2-methyl-1H-indol-5-yl)methyl]isoxazole-3-carboxamide]
37 | 0.56 | Cc1cc2cc(CNC(=O)c3cc(CC(F)(F)F)no3)ccc2[nH]1 [Compound 79]
